Counter-ions that a name gives are not always drawn.
Experiments:
[1] = target: Bcl-2 (Homo sapiens (Human), UniProt P10415); assay: Bcl-2 competition binding (fluorescence polarization) assay; conditions: fluorescein labeled BH3 peptide 15 nM, Bcl-2 protein 30 nM, 3 hours of incubation at room temperature
Experimental: Biological Example 1: Bcl-2 Competition Binding (Fluorescence Polarization) Assay
The fluorescence-labeled 23 amino acid peptide BH3 was purchased from CalBiochem ([…]). […] This binding assay was performed in 96-well plate and with each assay contained 15 and 30 nM of labeled peptide and purified Bcl-2 protein (purchased from R&D Systems, Inc). The assay buffer contained 20 mM Hepes (pH 7.0), 50 mM KCl, 5 mM MgCl2, 20 mM Na2MoO4, 0.1 mg/mi Bovine Gamma Globulin and 0.01% NP40. Compounds were diluted in DMS0 and added to the final assay with concentration range from 20 μM to 2 nM. The polarization degree (mP) value was determined by BioTek Synergy II with background subtraction after 3 hours of incubation at room temperature. IC50 was calculated using Prism software with sigmoidal dose-response curve fitting. ABT-737 was used as reference compound. Such assays, carried out with a range of doses of test compounds, allowed the determination of an approximate IC50 value.

[2] = tested on: BCL-2-dependent acute lymphoblastic leukemia (ALL) cell line RS4; 11 with G101V mutation; assay: In vitro anti-proliferation assay (ATPlite) in RS4; 11 with G101V mutation; format: cell-based; conditions: about 72 hours incubation, medium with 5% FBS or 10% normal human serum, ATPlite luminescence
Experimental: Cell antiproliferation was assayed by PerkinElmer ATPlite™ Luminescence Assay System. Briefly, the various test cancer cell lines were plated at a density of about 1×10^4 cells per well in Costar 96-well plates, and were incubated with different concentrations of compounds for about 72 hours in medium supplemented with 5% FBS or 10% normal human serum (NHS). One lyophilized substrate solution vial was then reconstituted by adding 5 mL of substrate buffer solution, and was agitated gently until the solution was homogeneous. About 50 μL of mammalian cell lysis solution was added to 100 μL of cell suspension per well of a microplate, and the plate was shaken for about five minutes in an orbital shaker at ˜700 rpm. This procedure was used to lyse the cells and to stabilize the ATP. Next, 50 μL substrate solution was added to the wells and microplate was shaken for five minutes in an orbital shaker at ˜700 rpm. Finally, the luminescence was measured by a PerkinElmer TopCount® Microplate Scintillation Counter. Such assays, carried out with a range of doses of test compounds, allowed the determination of the cellular anti-antiproliferative IC50 of the compounds of the present invention.

Sequence of Bcl-2 (P10415 whole entry): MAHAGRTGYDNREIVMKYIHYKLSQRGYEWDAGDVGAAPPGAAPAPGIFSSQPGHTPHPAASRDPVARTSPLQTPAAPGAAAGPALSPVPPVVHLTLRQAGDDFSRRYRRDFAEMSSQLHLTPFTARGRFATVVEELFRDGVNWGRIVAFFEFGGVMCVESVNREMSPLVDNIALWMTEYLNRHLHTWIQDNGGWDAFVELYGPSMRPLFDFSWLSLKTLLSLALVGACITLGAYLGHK

SMILES: CC(C)c1ccccc1[C@@H]1CCCN1C1CC2(CCN(c3ccc(C(=O)NS(=O)(=O)c4ccc(NCC5CCOCC5)c([N+](=O)[O-])c4)c(N4c5cc6cc[nH]c6nc5O[C@@H]5COC[C@H]54)c3)CC2)C1 [Example 1, 2-[(11R,15S)-13,16-dioxa-2,4,10-triazatetracyclo[7.7.0.0^[3,7]0.0^[11,15]]hexadeca-1(9),2,5,7-tetraen-10-yl]-4-[2-[(2S)-2-(2-isopropylphenyl)pyrrolidin-1-yl]-7-azaspiro[3.5]nonan-7-yl]-N-[3-nitro-4-[(oxan-4-ylmethyl)amino]benzenesulfonyl]benzamide]
- IC50 [1]: 0.1 nM
- IC50 [2]: 5.1 nM

SMILES: CC(C)c1ccccc1[C@@H]1CCCN1C1CC2(CCN(c3ccc(C(=O)NS(=O)(=O)c4ccc(NCC5CCOCC5)c([N+](=O)[O-])c4)c(N4c5cc6cc[nH]c6nc5O[C@H]5COC[C@@H]54)c3)CC2)C1 [Example 2, 2-[(11S,15R)-13,16-dioxa-2,4,10-triazatetracyclo[7.7.0.0^[3,7].0^[11,15]]hexadeca-1(9),2,5,7-tetraen-10-yl]-4-[2-[(2S)-2-(2-isopropylphenyl)pyrrolidin-1-yl]-7-azaspiro[3.5]nonan-7-yl]-N-[3-nitro-4-[(oxan-4-ylmethyl)amino]benzenesulfonyl]benzamide]
- IC50 [1]: 0.22 nM
- IC50 [2]: 66.7 nM

SMILES: CC(C)c1ccccc1[C@@H]1CCCN1C1CC2(CCN(c3ccc(C(=O)NS(=O)(=O)c4ccc(NC[C@H]5CC[C@](C)(O)CC5)c([N+](=O)[O-])c4)c(N4c5cc6cc[nH]c6nc5O[C@@H]5COC[C@H]54)c3)CC2)C1 [Example 3-0A]
- IC50 [1]: 0.16 nM
- IC50 [2]: 5.6 nM

SMILES: CC(C)c1ccccc1[C@@H]1CCCN1C1CC2(CCN(c3ccc(C(=O)NS(=O)(=O)c4ccc(NC[C@H]5CC[C@@](C)(O)CC5)c([N+](=O)[O-])c4)c(N4c5cc6cc[nH]c6nc5O[C@@H]5COC[C@H]54)c3)CC2)C1 [Example 3-0B]
- IC50 [1]: 0.13 nM
- IC50 [2]: 25 nM

SMILES: Cc1ccccc1[C@@H]1CCCN1C1CC2(CCN(c3ccc(C(=O)NS(=O)(=O)c4ccc(NCC5CCOCC5)c([N+](=O)[O-])c4)c(N4c5cc6cc[nH]c6nc5O[C@@H]5COC[C@H]54)c3)CC2)C1 [Example 4, 2-[(11R,15S)-13,16-dioxa-2,4,10-triazatetracyclo[7.7.0.0^{3,7}.0^{11,15}]hexadeca-1(9),2,5,7-tetraen-10-yl]-4-{2-[(2S)-2-(2-methylphenyl)pyrrolidin-1-yl]-7-azaspiro[3.5]nonan-7-yl}-N-{3-nitro-4-[(oxan-4-ylmethyl)amino]benzenesulfonyl}benzamide]
- IC50 [1]: 0.183 nM
- IC50 [2]: 28.3 nM

SMILES: C=C(C)c1ccccc1[C@@H]1CCCN1C1CC2(CCN(c3ccc(C(=O)NS(=O)(=O)c4ccc(NCC5CCOCC5)c([N+](=O)[O-])c4)c(N4c5cc6cc[nH]c6nc5O[C@@H]5COC[C@H]54)c3)CC2)C1 [Example 5, 2-[(11R,15S)-13,16-dioxa-2,4,10-triazatetracyclo[7.7.0.0^{3,7}.0^{11,15}]hexadeca-1(9),2,5,7-tetraen-10-yl]-N-{3-nitro-4-[(oxan-4-ylmethyl)amino]benzenesulfonyl}-4-{2-[(2S)-2-[2-(prop-1-en-2-yl)phenyl]pyrrolidin-1-yl]-7-azaspiro[3.5]nonan-7-yl}benzamide hydrochloride]
- IC50 [1]: 0.067 nM
- IC50 [2]: 9.5 nM

SMILES: C=Cc1ccccc1[C@@H]1CCCN1C1CC2(CCN(c3ccc(C(=O)NS(=O)(=O)c4ccc(NCC5CCOCC5)c([N+](=O)[O-])c4)c(N4c5cc6cc[nH]c6nc5O[C@@H]5COC[C@H]54)c3)CC2)C1 [Example 6, 2-[(11R,15S)-13,16-dioxa-2,4,10-triazatetracyclo[7.7.0.0^{3,7}.0^{11,15}]hexadeca-1(9),2,5,7-tetraen-10-yl]-4-{2-[(2S)-2-(2-ethenylphenyl)pyrrolidin-1-yl]-7-azaspiro[3.5]nonan-7-yl}-N-{3-nitro-4-[(oxan-4-ylmethyl)amino]benzenesulfonyl}benzamide hydrochloride]
- IC50 [1]: 0.083 nM
- IC50 [2]: 29 nM

SMILES: CCc1ccccc1[C@@H]1CCCN1C1CC2(CCN(c3ccc(C(=O)NS(=O)(=O)c4ccc(NCC5CCOCC5)c([N+](=O)[O-])c4)c(N4c5cc6cc[nH]c6nc5O[C@@H]5COC[C@H]54)c3)CC2)C1 [Example 7, 2-[(11R,15S)-13,16-dioxa-2,4,10-triazatetracyclo[7.7.0.0^{3,7}.0^{11,15}]hexadeca-1(9),2,5,7-tetraen-10-yl]-4-{2-[(2S)-2-(2-ethylphenyl)pyrrolidin-1-yl]-7-azaspiro[3.5]nonan-7-yl}-N-{3-nitro-4-[(oxan-4-ylmethyl)amino]benzenesulfonyl}benzamide hydrochloride]
- IC50 [1]: 0.066 nM
- IC50 [2]: 11.5 nM

SMILES: O=C(NS(=O)(=O)c1ccc(NCC2CCOCC2)c([N+](=O)[O-])c1)c1ccc(N2CCC3(CC2)CC(N2CCC[C@H]2c2ccccc2C2CC2)C3)cc1N1c2cc3cc[nH]c3nc2O[C@@H]2COC[C@H]21 [Example 8, 4-{2-[(2S)-2-(2-cyclopropylphenyl)pyrrolidin-1-yl]-7-azaspiro[3.5]nonan-7-yl}-2-[(11R,15S)-13,16-dioxa-2,4,10-triazatetracyclo[7.7.0.0^{3,7}.0^{11,15}]hexadeca-1(9),2,5,7-tetraen-10-yl]-N-{3-nitro-4-[(oxan-4-ylmethyl)amino]benzenesulfonyl}benzamide hydrochloride]
- IC50 [1]: 0.066 nM
- IC50 [2]: 9.1 nM

SMILES: CNc1ccccc1[C@@H]1CCCN1C1CC2(CCN(c3ccc(C(=O)NS(=O)(=O)c4ccc(NCC5CCOCC5)c([N+](=O)[O-])c4)c(N4c5cc6cc[nH]c6nc5O[C@@H]5COC[C@H]54)c3)CC2)C1 [Example 17, 2-[(11R,15S)-13,16-dioxa-2,4,10-triazatetracyclo[7.7.0.0^{3,7}.0^{11,15}]hexadeca-1(9),2,5,7-tetraen-10-yl]-4-{2-[(2S)-2-[2-(methylamino)phenyl]pyrrolidin-1-yl]-7-azaspiro[3.5]nonan-7-yl}-N-{3-nitro-4-[(oxan-4-ylmethyl)amino]benzenesulfonyl}benzamide]
- IC50 [1]: 0.225 nM
- IC50 [2]: 99.5 nM

SMILES: CC(C)(C#N)c1ccccc1[C@@H]1CCCN1C1CC2(CCN(c3ccc(C(=O)NS(=O)(=O)c4ccc(NCC5CCOCC5)c([N+](=O)[O-])c4)c(N4c5cc6cc[nH]c6nc5O[C@@H]5COC[C@H]54)c3)CC2)C1 [Example 19, 4-{2-[(2S)-2-[2-(1-cyano-1-methylethyl)phenyl]pyrrolidin-1-yl]-7-azaspiro[3.5]nonan-7-yl}-2-[(11R,15S)-13,16-dioxa-2,4,10-triazatetracyclo[7.7.0.0^{3,7}.0^{11,15}]hexadeca-1(9),2,5,7-tetraen-10-yl]-N-{3-nitro-4-[(oxan-4-ylmethyl)amino]benzenesulfonyl}benzamide hydrochloride]
- IC50 [1]: 0.1 nM
- IC50 [2]: 71.8 nM

SMILES: CC(C)Oc1ccccc1[C@@H]1CCCN1C1CC2(CCN(c3ccc(C(=O)NS(=O)(=O)c4ccc(NCC5CCOCC5)c([N+](=O)[O-])c4)c(N4c5cc6cc[nH]c6nc5O[C@@H]5COC[C@H]54)c3)CC2)C1 [Example 20, 2-[(11R,15S)-13,16-dioxa-2,4,10-triazatetracyclo[7.7.0.0^{3,7}.0^{11,15}]hexadeca-1(9),2,5,7-tetraen-10-yl]-4-{2-[(2S)-2-(2-isopropoxyphenyl)pyrrolidin-1-yl]-7-azaspiro[3.5]nonan-7-yl}-N-{3-nitro-4-[(oxan-4-ylmethyl)amino]benzenesulfonyl}benzamide]
- IC50 [1]: 0.299 nM
- IC50 [2]: 60.4 nM

SMILES: CC(C)Cc1ccccc1[C@@H]1CCCN1C1CC2(CCN(c3ccc(C(=O)NS(=O)(=O)c4ccc(NCC5CCOCC5)c([N+](=O)[O-])c4)c(N4c5cc6cc[nH]c6nc5O[C@@H]5COC[C@H]54)c3)CC2)C1 [Example 35, 4-(2-((S)-2-(2-isobutylphenyl)pyrrolidin-1-yl)-7-azaspiro[3.5]nonan-7-yl)-N-((3-nitro-4-(((tetrahydro-2H-pyran-4-yl)methyl)amino)phenyl)sulfonyl)-2-((5aR,8aS)-5a,6,8,8a-tetrahydrofuro[3,4-b]pyrrolo[3′,2′:5,6]pyrido[3,2-e][1,4]oxazin-5(1H)-yl)benzamide]
- IC50 [1]: 0.58 nM

SMILES: COC1(C)CCC(CNc2ccc(S(=O)(=O)NC(=O)c3ccc(N4CCC5(CC4)CC(N4CCC[C@H]4c4ccccc4C(C)C)C5)cc3N3c4cc5cc[nH]c5nc4O[C@@H]4COC[C@H]43)cc2[N+](=O)[O-])CC1 (stereo partly drawn) [Example 36, 4-(2-((S)-2-(2-isopropylphenyl)pyrrolidin-1-yl)-7-azaspiro[3.5]nonan-7-yl)-N-((4-((((1r,4r)-4-methoxy-4-methylcyclohexyl)methyl)amino)-3-nitrophenyl)sulfonyl)-2-((5aR,8aS)-5a,6,8,8a-tetrahydrofuro[3,4-b]pyrrolo[3′,2′:5,6]pyrido[3,2-e][1,4]oxazin-5(1H)-yl)benzamide hydrochloride]
- IC50 [1]: 0.31 nM
- IC50 [2]: 56.4 nM
